A short description of data set [1]: in vitro. The following applies: BALB/c, mouse.
The test system of data set [2] is Leishmania (L.) infantum promastigotes (strain MHOM/MA/67/ITMAP-263). Kind of data set: organism not typed. The settings on record: read-out: Anti-Promastigote Activity (IC50). In kind it is cell-based.

Where two headings read alike, the source gives them in different places. Some results are limits rather than exact numbers.

What is called IC50 is the midpoint of a concentration-inhibition curve. As usually defined, the EC50 is the concentration at which the effect is half-maximal. Lower therefore signals a more potent agent. As a reminder, the melting point is the temperature, or range, at which the solid turns liquid.

For `c1ccc2c(NCCCCCCCCNc3c4c(nc5ccccc35)CCCC4)c3c(nc2c1)CCCC3` [Compound 10.e], the cytotoxicity at 10 µM in data set [1] is 99.5%. In data set [2] (24 h), the concentration for half-maximal inhibition (IC50) worked out at 2.99 ± 0.98 µM. Consider `CC(=O)NCCCCCCCCCCNc1c2c(nc3cc(Cl)ccc13)CCCC2` [Compound 7.f], for which the cytotoxicity at 10 µM in data set [1] was found to be 77.5%. The IC50 in data set [2] (24 h) was 11.2 ± 0.66 µM. `Clc1ccc2c(Cl)c3c(nc2c1)CCCC3` [Compound 5.b]: in data set [2] (24 h), the IC50 was more than 100 µM. As for `CC(=O)NCCCCCCCCNc1c2c(nc3cc(Cl)ccc13)CCCC2` [Compound 7.e], the IC50 in data set [2] (24 h) is more than 100 µM. In the case of `Clc1ccc2c(NCCCNc3c4c(nc5cc(Cl)ccc35)CCCC4)c3c(nc2c1)CCCC3` [Compound 10.i], the cytotoxicity at 10 µM in data set [1] worked out at 90.4%. Besides, in data set [2], the IC50 stood at 8.58 ± 0.47 µM. For `Clc1ccc2c(NCCCCCNc3c4c(nc5cc(Cl)ccc35)CCCC4)c3c(nc2c1)CCCC3` [Compound 10.k], in that order: 87.5% and 5.26 ± 4.89 µM. In the case of `c1ccc2c(NCCCCCNc3c4c(nc5ccccc35)CCCC4)c3c(nc2c1)CCCC3` [Compound 10.d], the IC50 in data set [2] (24 h) is more than 50 µM. In data set [1], `c1ccc2c(NCCCCCCCCCCNc3c4c(nc5ccccc35)CCCC4)c3c(nc2c1)CCCC3` [Compound 10.f] returned a cytotoxicity at 10 µM of 99.5%. Also, the 50% inhibitory concentration (IC50) in data set [2] (24 h) stood at 0.94 ± 0.33 µM. In the case of `CC(=O)NCCCCCCNc1c2c(nc3cc(Cl)ccc13)CCCC2` [Compound 7.d], in data set [2], the half-inhibitory concentration (IC50) is more than 100 µM. For `C[C@@H]1[C@H](O)[C@@H](C)/C=C/C=C/C=C/C=C/C=C/C=C/C=C/[C@H](O[C@@H]2O[C@H](C)[C@@H](O)[C@H](N)[C@@H]2O)C[C@@H]2O[C@](O)(C[C@@H](O)C[C@@H](O)[C@H](O)CC[C@@H](O)C[C@@H](O)CC(=O)O[C@H]1C)C[C@H](O)[C@H]2C(=O)O` [Amphotericin B, reference compound], in data set [1], a half-maximal effect (EC50) was put at 3.1 ± 0.6 µM. Besides, the IC50 in data set [2] (24 h) was determined as 0.17 ± 0.09 µM.

In data set [1], `O=CNCCCCCCNc1c2c(nc3ccccc13)CCCC2` [Compound 8.e] returned a cytotoxicity at 10 µM of 94.7%. Further, the IC50 in data set [2] (24 h) turned out to be 3.23 ± 0.41 µM. For the compound `Clc1ccc2c(NCCCCCCCCCCNc3c4c(nc5cc(Cl)ccc35)CCCC4)c3c(nc2c1)CCCC3` [Compound 10.m], the cytotoxicity at 10 µM in data set [1] amounted to 99%. The IC50 in data set [2] came out at 1.92 ± 0.21 µM. With `O=C1C=C(NCCCNc2c3c(nc4cc(Cl)ccc24)CCCC3)C(=O)C=C1NCCCNc1c2c(nc3cc(Cl)ccc13)CCCC2` [Compound 9.c], the half-inhibitory concentration (IC50) in data set [2] was more than 50 µM. Turning to `O=CNCCCNc1c2c(nc3ccccc13)CCCC2` [Compound 8.d], the cytotoxicity at 50 µM in data set [1] came to 100%. Further, the IC50 in data set [2] (24 h) is 14.2 ± 0.98 µM. As to `O=CNCNc1c2c(nc3ccccc13)CCCC2` [Compound 8.b], the cytotoxicity at 10 µM in data set [1] is 88.1%. In data set [2] (24 h), the IC50 is 5.64 ± 0.65 µM. `c1ccc2c(NCCCCCCCCCCCCNc3c4c(nc5ccccc35)CCCC4)c3c(nc2c1)CCCC3` [Compound 10.g] showed a cytotoxicity at 10 µM in data set [1] of 99.7%. For the same compound, in data set [2] (24 h), the IC50 came to 0.37 ± 0.06 µM.

On to `Clc1ccc2c(NCCCCCCCCCCCCNc3ccnc4cc(Cl)ccc34)ccnc2c1` [Compound 12, N^1,N^12-bis(7-chloroquinolin-4-yl)dodecane-1,12-diamine], for which the EC50 in data set [1] came to 11.7 ± 3.96 µM. The IC50 in data set [2] (24 h) is 0.6 ± 0.11 µM. Compound `O=CNCCCCCCCCNc1c2c(nc3ccccc13)CCCC2` [Compound 8.f] yielded a cytotoxicity at 10 µM in data set [1] of 91.2%. Also, the IC50 in data set [2] (24 h) was found to be 1.55 ± 0.38 µM. For the compound `Clc1ccc2c(NCCCCCCCCCCCCNc3c4c(nc5cc(Cl)ccc35)CCCC4)c3c(nc2c1)CCCC3` [Compound 10.n], the cytotoxicity at 50 µM in data set [1] turned out to be 92.5%. The 50% inhibitory concentration (IC50) in data set [2] came to 3.5 ± 0.63 µM. Consider `O=CNCCNc1c2c(nc3ccccc13)CCCC2` [Compound 8.c], for which, in data set [1], the cytotoxicity at 10 µM worked out at 99.5%. The IC50 in data set [2] (24 h) is 1.69 ± 0.22 µM. Take `O=C1C(Cl)=C(NCCCNc2c3c(nc4ccccc24)CCCC3)C(=O)C(Cl)=C1NCCCNc1c2c(nc3ccccc13)CCCC2` [Compound 9.b]: the IC50 in data set [2] is more than 100 µM. On the same count and under the same terms, the result for `CC(=O)NCCCCCCCCNc1c2c(nc3ccccc13)CCCC2` [Compound 7.b] reads more than 100 µM. For `Clc1c2c(nc3ccccc13)CCCC2` [Compound 5.a], the IC50 in data set [2] (24 h) is more than 100 µM. For the compound `Clc1ccc2c(NCCNc3c4c(nc5cc(Cl)ccc35)CCCC4)c3c(nc2c1)CCCC3` [Compound 10.h], the melting point was 89 to 95 °C. Moreover, the IC50 in data set [2] came to 9.5 ± 0.51 µM. For `O=CNNc1c2c(nc3ccccc13)CCCC2` [Compound 8.a], the IC50 in data set [2] (24 h) is more than 50 µM.

For `CC(=O)NCCCCCCCCCCNc1c2c(nc3ccccc13)CCCC2` [Compound 7.c], in data set [2] (24 h), the IC50 was more than 100 µM.

In the case of `Clc1ccc2c(NCCCCNc3c4c(nc5cc(Cl)ccc35)CCCC4)c3c(nc2c1)CCCC3` [Compound 10.j], in data set [1], the response was half-maximal at 9.02 ± 1.79 µM (EC50). The half-maximal inhibitory concentration (IC50) in data set [2] stood at 8.56 ± 1.56 µM. On to `O=C1C(Cl)=C(NCCCNc2c3c(nc4cc(Cl)ccc24)CCCC3)C(=O)C(Cl)=C1NCCCNc1c2c(nc3cc(Cl)ccc13)CCCC2` [Compound 9.d], for which the IC50 in data set [2] worked out at 2.17 ± 0.45 µM.

For the compound `CC(=O)NCCCCCCNc1c2c(nc3ccccc13)CCCC2` [Compound 7.a], the IC50 in data set [2] is more than 100 µM.

The values are drawn from publication PMC9965875 (Pharmaceutics, 2023).
